The values below come from patent US20150238579A1, “METHODS FOR ASSEMBLING A PRODUCT FOR MODULATING AN IMMUNOMODULATORY RESPONSE IN HUMANS” (INVESTFOOD, LLC, priority 2014, published 2015).

Data set [1] relates to human acute monocytic leukemia cell line THP-1. Kind of data set: IL-1β production in LPS/PMA-activated THP-1 cells (ELISA). Conditions: THP-1, 24 h pre-incubation with 0.1 to 25 μM PTSO, then 1 μg/ml LPS and 1 μM PMA, FIG. 3. Format: cell-based. How it is done:
(§1) The effects of different concentrations of PTSO on cytokine production (IL-1β and IL-6) in the human acute monocytic leukemia cell line THP-1 activated by lipopolysaccharide (LPS) and phorbol 12-myristate 13-acetate (PMA) were evaluated. Of note, IL-1β and IL-6 cytokines have been reported to play a key role in the activated immune response that takes place in different inflammatory and/or immune conditions.
The human acute monocytic leukemia cell line THP-1 was obtained from the Cell Culture Unit of the University of Granada (Granada, Spain) (ECACC reference number: 88081201). These cells were cultured in Roswell Park Memorial Institute (RPMI) 1640 medium (Sigma, St Louis, Mo., USA) supplemented with 10% fetal bovine serum (Sigma), 2 mM glutamine and 0.05 mM mercaptoethanol in a humidified 5% carbon dioxide (CO2) atmosphere at 37° C. The cultured cells were seeded onto 24-well plates at a density of 5×10^5 cells/ml and pre-incubated for twenty four (24) hours with the different concentrations of the test compound (ranging from 0.1 to 25 μM of PTSO), and then stimulated with 1 μg/ml LPS and 1 μM phorbol 12-myristate 13-acetate (PMA). […]
(In general: In an ELISA, binding on a coated surface is turned into a signal by an enzyme label.)

Data set [2] deals with human epithelial colorectal adenocarcinoma cells (CACO-2). As to the kind of experiment: IL-8 production in IL-1β-activated CACO-2 cells (ELISA). Type of data set: cell-based. Conditions: Caco-2, 24 h pre-incubation with 0.1 to 25 μM PTSO, then 1 ng/ml IL-1β, FIG. 5. As for the experimental part:
The effects of different concentrations of PTSO on cytokine production (IL-8) in the epithelial cell line human epithelial colorectal adenocarcinoma cells (CACO-2) activated by IL-1β were evaluated. IL-8 acts as a neutrophil attractant, which participates in the neutrophil infiltration that occurs in mucosal sites affected by an inflammatory process.
The human colonic adenocarcinoma cell line CACO-2 was obtained from the Cell Culture Unit of the University of Granada (Granada, Spain) (ECACC reference number: 86010202). Cells from the human colonic adenocarcinoma cell line CACO-2 were cultured in RPMI 1640 (Sigma) supplemented with 10% fetal bovine serum (Sigma), 2 mM glutamine and 0.05 mM mercaptoethanol in a humidified 5% CO2 atmosphere at 37° C. The cultured cells were seeded onto 24-well plates until confluence and pre-incubated for twenty-four hours (24 hr) with the different concentrations of the test compound (ranging from 0.1 to 25 μM of PTSO), and then stimulated with 1 ng/ml IL-1β. […] The effects of the different concentrations of PTSO on cell viability were assessed by using the methylthiazol terazolium (MTT) assay (Promega), following the same protocol of incubation of the test compound similar to that described above.

Data set [3] relates to human T cell line JURKAT E6.1. As to the kind of experiment: IFN-γ production in ionomycin/PMA-stimulated JURKAT E6.1 cells (ELISA). Type of data set: cell-based. The following applies: JURKAT E6.1, 2 and 24 h pre-incubation with 0.1 to 25 μM PTSO, then 40 nM ionomycin and 0.5 μM PMA, FIG. 6. As for the experimental part:
The human T cell line JURKAT E6.1 was obtained from the Cell Culture Unit of the University of Granada (Granada, Spain) (ECACC reference number: 88042803). Cells from the human T cell line JURKAT E6.1 were cultured in RPMI 1640 (Sigma) supplemented with 10% fetal bovine serum (Sigma), 2 mM glutamine and 0.05 mM mercaptoethanol in a humidified 5% CO2 atmosphere at 37° C. The cultured cells from the human T cell line JURKAT E6.1 were seeded onto 24-well plates at the concentration of 500,000 cells/ml and pre-incubated for 2 and 24 hours with the different concentrations of the test compound (ranging from 0.1 to 25 μM of PTSO), and then stimulated with 40 nM ionomycin and 0.5 μM of PMA. After twenty four hours (24 hours), the supernatants were collected and centrifuged at 1,000 g for 10 min, and stored at −80° C. for the determination of IFN-γ levels by ELISA (GE Healthcare).

Data set [4] has as its system human acute monocytic leukemia cell line THP-1. Kind of data set: IL-6 production in LPS/PMA-activated THP-1 cells (ELISA). Format: cell-based. As for the experimental part:
as §1
The human acute monocytic leukemia cell line THP-1 was obtained from the Cell Culture Unit of the University of Granada (Granada, Spain) (ECACC reference number: 88081201). These cells were cultured in Roswell Park Memorial Institute (RPMI) 1640 medium (Sigma, St Louis, Mo., USA) supplemented with 10% fetal bovine serum (Sigma), 2 mM glutamine and 0.05 mM mercaptoethanol in a humidified 5% carbon dioxide (CO2) atmosphere at 37° C. The cultured cells were seeded onto 24-well plates at a density of 5×10^5 cells/ml and pre-incubated for twenty four (24) hours with the different concentrations of the test compound (ranging from 0.1 to 25 μM of PTSO), and then stimulated with 1 μg/ml LPS and 1 μM phorbol 12-myristate 13-acetate (PMA). After twenty-four hours, the supernatants were collected and centrifuged at 1,000 g for 10 min, and then stored at −80° C. for the determination of IL-1β and IL-6 levels by an enzyme-linked immunosorbent assay (ELISA) (GE Healthcare, Little Chalfont, UK).

The next data set has as its system THP-1 cells. As to the kind of experiment: Cell viability (MTT assay), THP-1. Type of data set: cell-based, human. Conditions: THP-1, concentrations up to 25 μM. For orientation: Tetrazolium dyes change colour on reduction, which living cells bring about.
A further data set has as its system CACO-2 cells. Kind of data set: Cell viability (MTT assay), CACO-2. Format: cell-based, human. The following applies: CACO-2, concentrations up to 25 μM. How it is done: The human colonic adenocarcinoma cell line CACO-2 was obtained from the Cell Culture Unit of the University of Granada (Granada, Spain) (ECACC reference number: 86010202). Cells from the human colonic adenocarcinoma cell line CACO-2 were cultured in RPMI 1640 (Sigma) supplemented with 10% fetal bovine serum (Sigma), 2 mM glutamine and 0.05 mM mercaptoethanol in a humidified 5% CO2 atmosphere at 37° C. The cultured cells were seeded onto 24-well plates until confluence and pre-incubated for twenty-four hours (24 hr) with the different concentrations of the test compound (ranging from 0.1 to 25 μM of PTSO), and then stimulated with 1 ng/ml IL-1β. After twenty four hours (24 hr), the supernatants were collected and centrifuged at 1,000 g for 10 min, and stored at −80° C. for the determination of IL-8 levels by ELISA (GE Healthcare). The effects of the different concentrations of PTSO on cell viability were assessed by using the methylthiazol terazolium (MTT) assay (Promega), following the same protocol of incubation of the test compound similar to that described above.

The next data set has as its system Jurkat cells. Kind of data set: Cell viability (MTT assay), Jurkat. Type of data set: cell-based, human. Conditions: concentrations up to 25 μM.

As to `CCCSS(=O)(=O)CCC` [PTSO, 1-propylsulfonylsulfanylpropane], the “production of IL-1β” value in data set [1] is recorded as “reduce the production of IL-1β in a dose-dependent manner”. For the same compound, in data set [2], the “production of IL-8 cytokine” value is on record as “demonstrated immunomodulatory activity on the production of IL-8 cytokine”. Also, the “production of interferon gamma (IFN-γ)” value in data set [3] was “modulating immune function on the production of interferon gamma (IFN-γ)”. Also, the “production of IL-6” value in data set [4] (THP-1, 24 h pre-incubation with 0.1 to 25 μM PTSO, then 1 μg/ml LPS and 1 μM PMA, 24 h, FIG. 4) is recorded as “can modulate the production of IL-6”. In addition, in data set [4] (THP-1 cells, at 0.1 µM), the “production of IL-6 at 0.1 µM” value is “can increase the production of IL-6”. For the same compound, the “production of IL-6 at more than 1 mM” value in data set [4] (THP-1 cells, starting from more than 1 mM dose) is “a clear immunosuppressive effect is observed”. Besides, the cell viability entry in the data set with THP-1 cells, in the data set on CACO-2 cells and in the data set with Jurkat cells was “did not significantly affect the viability” each time.
